Results on 22 compounds are retold here after US7893304B2, “Hydroquinone long-chain derivatives and/or phenoxy long-chain derivatives, and pharmaceuticals comprising the same” (Meiji Dairies Corporation, priority 2005, dated 2011).

“Also recorded” adds a separate entry of the source.

Assay [1] in a line: DPPH scavenging ability test (active organic radical species scavenging ability). The note with it: for IC50: percent decrease in OD at 550 nm, 400 μM DPPH in ethanol. Also noted: key to DPPH test: +: effective; −: >10 mM. The procedure:
The ability of the derivatives obtained in preparation processes A and B to scavenge 2,2-diphenyl-1-picrylhydrazyl (DPPH) (active organic radical species scavenging ability) was measured by the following method.
Trolox® and the test compounds were individually dissolved in ethanol and the solutions were adjusted to a final concentration of 10 mM. Next, each solution was diluted severalfold to obtain solutions at concentrations ranging from 10 mM to 1 μM.
100 μl of each of the obtained ethanol solutions was added to a multi-well ELISA plate along with 100 μl of 400 μM DPPH solution in ethanol. The absorbance (optical density, OD) at 550 nm was measured for these solutions.
DPPH scavenging ability was determined for each test compound based on the results of these measurements. For comparison, the test compound solutions in ethanol were substituted with ethanol alone.
The scavenging ability of each test compound is presented as a percent decrease in OD with respect to the absorbance of the comparative sample.
In general terms: DPPH is a stable violet radical that fades when it is reduced.

Assay [2] in a line: OH radical scavenging ability test (ABTS scavenging assay, Fenton reaction). More on the design: key to OH test: +: effective; −: >10 mM. As to conditions: for IC50: ABTS competition, OD at 405 nm, 45 minutes at room temperature. The procedure: Hydroxyl radical scavenging ability was measured for derivatives obtained in preparation processes A, B, and E by the following method using an ABTS (2,2′-azinobis(3-ethylbenzthiazolin-6-sulfonic acid)) scavenging assay.
In this test, hydroxyl radicals were generated in situ by the Fenton reaction. Next, competitive reactions between ABTS and the test compounds took place, and the hydroxyl radicals were scavenged by ABTS to form ABTS^+ radical cations, or were scavenged by the test compounds.
The test compounds and Trolox® were individually dissolved in ethanol and the solutions were adjusted to a final concentration of 10 mM. Each solution was then diluted severalfold to obtain solutions at concentrations ranging from 10 mM to 1 μM.
Next, 180 μl of 1:1 ethanol-water solution was added to a multi-well ELISA plate, and then 30 μl of 1 mM aqueous ABTS solution, 30 μl of 0.5 mM aqueous Fe2SO4 solution, 30 μl of a solution of each test compound in ethanol, and 30 μl of 100 mM aqueous hydrogen peroxide solution were added. The obtained solutions were left to stand for 45 minutes at room temperature, and the absorbance (OD) at 405 nm was measured. OH radical scavenging ability was determined for each test compound based on the results of these measurements. For comparison, the test compound solutions in ethanol were substituted with ethanol alone.

Assay [3] deals with E15 neurons. As to conditions: J. Neurochem., 90 (6), 1423-31, 2004; cited from earlier work.
The subject of assay [4] is E15 neurons. The assay is described as follows: Axonal growth in primary culture of CNS neurons (morphometric analysis). Format: cell-based, mouse. The procedure: Fetal mouse (15 days old) cerebral hemispheres were dissected in cold Gey's balanced salt solution supplemented with glucose to isolate the neocortex. Cells were dispersed by trypsin and mechanical dissociation. Next, the cells were plated at a concentration of 200,000 cells/well onto cover slips coated with 1 μg/ml of poly-L-lysine, and the cells were cultured in a serum-containing medium (Dulbecco's modified Eagle medium, 2 mM glutamine, 1 g/l glucose, 10% fetal calf serum, and penicillin/streptomycin) in 5% CO2 at 37° C. for 24 hours.
On day 2, the medium was substituted with a chemically defined medium (Dulbecco's modified Eagle medium, 2 mM glutamine, 1 g/l glucose, 16 μg/ml putrescine, 52 ng/ml selenium, 10 μg/ml holotransferrin, 5 μg/ml insulin, and 3 ng/ml progesterone), and test compounds were added at different concentrations. The cells were cultured in 5% CO2 at 37° C. for 24 hours.
On day 3, the cells were fixed with 4% formaldehyde in phosphate buffered saline (PBS) for ten minutes. After two washes with PBS, permeation of cells was performed with 100% methanol for five minutes. […]
Photographs were randomly taken (×20 magnification) using an Axiovert 200 microscope (Zeiss) equipped with a digital camera. The axonal length of each neuron was determined using a computer-assisted image analyzer (UTHSCSA Image Tool 3.0).

Where [5] appears, read: read-out: IC50 (μM), OH radical scavenging ability.
The mark [6] stands for this setting: read-out: IC50, OH radical scavenging ability.

By IC50 is commonly meant the midpoint of a concentration-inhibition curve.

With `OCCCCCCCCCCCCCCCc1cc(O)ccc1O` [Synthesis Example E-(34), 2-(15-hydroxypentadecyl)benzene-1,4-diol], the half-maximal inhibitory concentration (IC50) in assay [1] came out at 0.23 mM; in assay [2] (setting [5]), 6 µM.

Take `COc1ccc(OC)c(NCCCCCCCCCCO)c1` [Synthesis Example C-(24), 10-(2,5-Dimethoxyphenylamino)decan-1-ol]: the DPPH test entry in assay [1] (Table 4, formula (2) compounds) is reported as “− (−: >10 mM)”. For the same compound, the OH test result in assay [2] (Table 4, formula (2) compounds) was “− (−: >10 mM)”.

With `COc1cc(OC)c(OC)cc1CCCCCCCCCCCCCCO` [Synthesis Example B-(13), 14-(2,4,5-trimethoxyphenyl)tetradecan-1-ol], the DPPH test result in assay [1] (Table 3, formula (1) compounds) is listed as “− (−: >10 mM)”.

For `COc1ccc(OC)c(CCCCCCCCCCCCCCCCO)c1` [Synthesis Example A-(8), 16-(2,5-dimethoxyphenyl)hexadecan-1-ol], in assay [1] (Table 3, formula (1) compounds), the DPPH test entry was “− (−: >10 mM)”. The OH test result in assay [2] (Table 3, formula (1) compounds) was “− (−: >10 mM)”.

Turning to `COc1cc(OC)c(OC)cc1CCCCCCCCCCCCCCCCO` [Synthesis Example B-(16), 16-(2,4,5-trimethoxyphenyl)hexadecan-1-ol], in assay [1] (Table 3, formula (1) compounds), the DPPH test result is listed as “− (−: >10 mM)”.

In the case of `COc1ccc(OC)c(CCCCCCCCCCCCCCCCCCO)c1` [Synthesis Example A-(9), 18-(2,5-dimethoxyphenyl)octadecan-1-ol], the DPPH test entry in assay [1] (Table 3, formula (1) compounds) is “− (−: >10 mM)”. The figures for the 50% inhibitory concentration (IC50) in assay [1] and in assay [2] (setting [6]) were more than 10 mM and more than 10000 µM, respectively. In assay [2] (Table 3, formula (1) compounds), the OH test entry is listed as “− (−: >10 mM)”.

`COc1cc(OC)c(OC)cc1CCCCCCCCCCCCCCCO` [Synthesis Example B-(15), 15-(2,4,5-trimethoxyphenyl)pentadecan-1-ol]: the DPPH test result in assay [1] (Table 3, formula (1) compounds) is listed as “− (−: >10 mM)”.

On to `COc1cc(OC)c(OC)cc1CCCCCCCCCCCCO` [Synthesis Example B-(14), 12-(2,4,5-trimethoxyphenyl)dodecan-1-ol], for which, in assay [1] (Table 3, formula (1) compounds), the DPPH test result is listed as “− (−: >10 mM)”. The half-maximal inhibitory concentration (IC50) in assay [1] is more than 10 mM; in assay [2] (setting [5]), 720 µM.

Consider `COc1ccc(OC)c(NCCCCCCCCCCCCCCO)c1` [Synthesis Example C-(22), 14-(2,5-Dimethoxyphenylamino)tetradecan-1-ol], for which the DPPH test entry in assay [1] (Table 4, formula (2) compounds) was “− (−: >10 mM)”. In assay [2] (Table 4, formula (2) compounds), the OH test result is on record as “− (−: >10 mM)”.

For `CC1=C(CCCCCCCCCCCCCCCO)C(C)(C)CCC1=O` [tCFA15, 3-(15-hydroxypentadecyl)-2,4,4-trimethyl-2-cyclohexen-1-one], the “axonal growth-promoting activity in a previous study (in words)” value in assay [3] was “showed similar results”.

Take `COc1cc(OC)c(OC)cc1CCCCCCCCCCCCCCCCCCO` [Synthesis Example B-(17), 18-(2,4,5-trimethoxyphenyl)octadecan-1-ol]: in assay [1] (Table 3, formula (1) compounds), the DPPH test result was “− (−: >10 mM)”. Besides, the IC50 was more than 10 mM in assay [1] and 720 µM in assay [2] (setting [5]).

With `COc1ccc(OC)c(CCCCCCCCCCCCCCCO)c1` [Synthesis Example A-(7), 15-(2,5-dimethoxyphenyl)pentadecan-1-ol], in assay [1] (Table 3, formula (1) compounds), the DPPH test entry is given as “− (−: >10 mM)”. The OH test entry in assay [2] (Table 3, formula (1) compounds) is listed as “− (−: >10 mM)”. For the same compound, the “axonal growth-promoting activity (in words)” value in assay [4] (24 hours with compound, listed as QFA15) is listed as “the most active compound; also recorded: greater axonal growth-promoting ability at a lower concentration; also recorded: effective axonal growth-promoting agent”. For the same compound, in assay [4] (control 85 μM, the values are: axonal length), the axonal growth-promoting effect, value of FIG. 4 micrographs was 155 µm.

In the case of `COc1ccc(OC)c(OCCCCCCCCCCCCCCCCO)c1` [Synthesis Example D-(30), 16-(2,5-dimethoxyphenoxy)hexadecan-1-ol], the DPPH test entry in assay [1] (Table 4, formula (2) compounds) is given as “− (−: >10 mM)”. Also, in assay [2] (Table 4, formula (2) compounds), the OH test result is on record as “− (−: >10 mM)”.

In the case of `Cc1c(C)c2c(c(C)c1O)CCC(C)(C(=O)O)O2` (stereo not shown) [Trolox ®, reference compound], the results for the IC50 in assay [1] and in assay [2] (setting [5]) were 0.23 mM and 600 µM, respectively.

With `COc1ccc(OC)c(NCCCCCCCCCCCCO)c1` [Synthesis Example C-(23), 12-(2,5-Dimethoxyphenylamino)dodecan-1-ol], the DPPH test result in assay [1] (Table 4, formula (2) compounds) is “− (−: >10 mM)”. Further, the OH test entry in assay [2] (Table 4, formula (2) compounds) is on record as “− (−: >10 mM)”.

`COc1ccc(OC)c(CCCCCCCCCCCCO)c1` [Synthesis Example A-(5), 12-(2,5-dimethoxyphenyl)dodecan-1-ol]: the DPPH test entry in assay [1] (Table 3, formula (1) compounds) is listed as “− (−: >10 mM)”. Further, the IC50 in assay [1] is more than 10 mM; in assay [2] (setting [6]) it was more than 10000 µM. Further, the OH test entry in assay [2] (Table 3, formula (1) compounds) is “− (−: >10 mM)”.

Take `COc1ccc(OC)c(NCCCCCCCCCCCCCCCCO)c1` [Synthesis Example C-(21), 16-(2,5-dimethoxyphenylamino)hexadecan-1-ol]: in assay [1] (Table 4, formula (2) compounds), the DPPH test result is given as “− (−: >10 mM)”. Further, the OH test result in assay [2] (Table 4, formula (2) compounds) is “− (−: >10 mM)”.

On to `OCCCCCCCCCCCCc1cc(O)ccc1O` [Synthesis Example E-(31), 2-(12-hydroxydodecyl)benzene-1,4-diol], for which the 50% inhibitory concentration (IC50) in assay [1] worked out at 0.23 mM; in assay [2] (setting [5]), 6 µM.

Regarding `COc1ccc(OC)c(OCCCCCCCCCCCCO)c1` [Synthesis Example D-(29), 12-(2,5-dimethoxyphenoxy)dodecan-1-ol], in assay [1] (Table 4, formula (2) compounds), the DPPH test entry is “− (−: >10 mM)”. Moreover, the OH test result in assay [2] (Table 4, formula (2) compounds) is reported as “− (−: >10 mM)”.

`OCCCCCCCCCCCCCCCCCCc1cc(O)ccc1O` [Synthesis Example E-(32), 2-(18-hydroxyoctadecyl)benzene-1,4-diol]: the figures for the IC50 in assay [1] and in assay [2] (setting [5]) were 0.23 mM and 6 µM, respectively.

In the case of `COc1ccc(OC)c(CCCCCCCCCCCCCCO)c1` [Synthesis Example A-(6), 14-(2,5-dimethoxyphenyl)tetradecan-1-ol], the DPPH test entry in assay [1] (Table 3, formula (1) compounds) is “− (−: >10 mM)”. Also, in assay [2] (Table 3, formula (1) compounds), the OH test result is on record as “− (−: >10 mM)”.

Consider `CCCCCCCCCCCCCCCCc1cc(O)ccc1O` [Synthesis Example E-(33), 2-hexadecylbenzene-1,4-diol], for which, in assay [1] (Table 4, formula (2) compounds), the DPPH test entry was “+”. The compound further returned an IC50 in assay [1] of 1.53 mM. Further, in assay [2] (Table 4, formula (2) compounds), the OH test entry is “+”.
